Laboratory results as given in US6699497B1 (Alza Corporation, priority 1998, dated 2004).
Counter-ions that a name gives are not always drawn.

Assays:
[1] = in vitro transdermal flux of fenoldopam through human epidermis; format: in vitro ADME
Text: The resulting mix was then calendered to a 5 mil thickness between 2 release liners. The drug reservoir was then heat laminated to a Medpar® backing on one surface and a 3M acrylate adhesive on the other. Circular systems were cut with a stainless steel punch.
The release liner of the matrix system was then removed and each system had its exposed edges masked. The systems were then mounted on a Teflon® holder of a release rate rod using nylon mesh and nickel wire. A known volume of receptor solution (30 ml 0.01 M phosphate buffer solution at pH 2.5) was then placed in a test tube and equilibrated at 35° C. The test tube was placed in a water bath and maintained at 35° C. The Teflon rod with attached system was then reciprocated within the test tube by attaching the rod to a motor which caused constant vertical mixing.
At given time intervals, the entire receptor solution was removed from the test tubes and replaced with an equal volume of fresh receptor solutions previously equilibrated at 35° C. […] From the drug concentration and the volume of the receptor solutions, the area of the system and the time interval, the release rate of the drug from the system was calculated as follows: (drug concentration X volume of receptor)/(area x time) =release rate (μg/cm^2·hr).
(§1) Transdermal systems set forth in Table 1 were prepared according to Example 1 and used to measure permeation through human cadaver skin. […] The edges of epidermis were then folded around the system so that none of the system edge was exposed to the receptor solution. […] The receptor compartment was filled with a known volume of 0.01 M KH2PO4/K2HPO4 which was adjusted to pH 2.5 with 10% H3PO4 buffer solution previously equilibrated at 35° C.
as §1, with “in Table 2 were prepared” for “in Table 1 were prepared”, “according to the procedure set forth in Example 1” for “according to Example 1”

[2] = mild to moderate hypertensive patients; cited from earlier work
[3] = in vivo; cited from earlier work
[4] = oral administration; cited from earlier work

lag period on transdermal administration [1] | permeability through the skin, formulations of base compared to formulations of salts ([1]; in general, compared to salts such as fenoldopam mesylate) | transdermal flux compared to formulations of the base ([1]; myristyl sarcosine as permeation enhancer) | Structure (SMILES) | elimination half-life [2] | effect on systolic and diastolic blood pressure [3] | clinical benefit [4]
long lag period | more permeable through the skin | – | Oc1ccc(C2CNCCc3c2cc(O)c(O)c3Cl)cc1 (stereo not shown) [fenoldopam base] | – | – | –
did not exhibit the long lag period | – | higher transdermal fluxes | Oc1ccc(C2CNCCc3c2cc(O)c(O)c3Cl)cc1 (stereo not shown) [fenoldopam mesylate] | – | – | –
– | – | – | Oc1ccc(C2CNCCc3c2cc(O)c(O)c3Cl)cc1 (stereo not shown) [fenoldopam, 6-Chloro-2,3,4,5-tetrahydro-1-(4-hydroxyphenol)-1H-3-benzapine-7,8 diol] | about 5 minutes | dose-dependent reduction in systolic and diastolic blood pressure | does not provide any clinical benefit
